Reference: the NIST ThermoML archive (doi:10.1016/j.jct.2011.08.016)

Test: xn = mol fraction of the nth substance listed
Settings: Liquid, Vibrating tube method

CCCCCCCCCC [decane] + CCCCCCC
Settings | mass density [kg/m3]
313.18 K, 10000 kPa, x2 = 0.5219 | 703.05
313.18 K, 10000 kPa, x2 = 0.777 | 690.24
313.18 K, 10990 kPa, x2 = 0.5219 | 703.9
313.18 K, 10990 kPa, x2 = 0.777 | 691.12
313.18 K, 12000 kPa, x2 = 0.5219 | 704.76
313.18 K, 12000 kPa, x2 = 0.777 | 692.05
313.18 K, 13000 kPa, x2 = 0.5219 | 705.6
313.18 K, 13000 kPa, x2 = 0.777 | 692.92
313.18 K, 14000 kPa, x2 = 0.5219 | 706.44
313.18 K, 14000 kPa, x2 = 0.777 | 693.78
313.18 K, 15000 kPa, x2 = 0.5219 | 707.25
313.18 K, 15000 kPa, x2 = 0.777 | 694.64
313.18 K, 16000 kPa, x2 = 0.5219 | 708.05
313.18 K, 16000 kPa, x2 = 0.777 | 695.5
313.18 K, 17000 kPa, x2 = 0.5219 | 708.84
313.18 K, 17000 kPa, x2 = 0.777 | 696.33
313.18 K, 18000 kPa, x2 = 0.5219 | 709.64
313.18 K, 18000 kPa, x2 = 0.777 | 697.16
313.18 K, 19000 kPa, x2 = 0.5219 | 710.37
313.18 K, 19000 kPa, x2 = 0.777 | 697.97
313.18 K, 20000 kPa, x2 = 0.5219 | 711.12
313.18 K, 20000 kPa, x2 = 0.777 | 698.77
313.18 K, 21000 kPa, x2 = 0.5219 | 711.85
313.18 K, 21000 kPa, x2 = 0.777 | 699.55
313.18 K, 22000 kPa, x2 = 0.5219 | 712.53
313.18 K, 22000 kPa, x2 = 0.777 | 700.31
313.18 K, 23000 kPa, x2 = 0.5219 | 713.24
313.18 K, 23000 kPa, x2 = 0.777 | 701
313.18 K, 24000 kPa, x2 = 0.5219 | 713.92
313.18 K, 24000 kPa, x2 = 0.777 | 701.71
313.18 K, 25000 kPa, x2 = 0.5219 | 714.55
313.18 K, 25000 kPa, x2 = 0.777 | 702.37
323.14 K, 1000 kPa, x2 = 0.5219 | 687.21
323.14 K, 1000 kPa, x2 = 0.952 | 662.62
323.14 K, 2000 kPa, x2 = 0.5219 | 688.12
323.14 K, 2000 kPa, x2 = 0.952 | 663.72
323.14 K, 3000 kPa, x2 = 0.5219 | 689.02
323.14 K, 3000 kPa, x2 = 0.952 | 664.82
323.14 K, 4000 kPa, x2 = 0.5219 | 689.95
323.14 K, 4000 kPa, x2 = 0.952 | 665.9
323.14 K, 5000 kPa, x2 = 0.5219 | 690.88
323.14 K, 5000 kPa, x2 = 0.952 | 666.98
323.14 K, 6000 kPa, x2 = 0.5219 | 691.82
323.14 K, 6000 kPa, x2 = 0.952 | 668.05
323.14 K, 7000 kPa, x2 = 0.5219 | 692.78
323.14 K, 7000 kPa, x2 = 0.952 | 669.1
323.14 K, 8000 kPa, x2 = 0.5219 | 693.71
323.14 K, 8000 kPa, x2 = 0.952 | 670.14
323.14 K, 9000 kPa, x2 = 0.5219 | 694.65
323.14 K, 9000 kPa, x2 = 0.952 | 671.16
323.14 K, 10000 kPa, x2 = 0.5219 | 695.58
323.14 K, 10000 kPa, x2 = 0.952 | 672.17
323.14 K, 10990 kPa, x2 = 0.5219 | 696.5
323.14 K, 10990 kPa, x2 = 0.952 | 673.16
323.14 K, 12000 kPa, x2 = 0.5219 | 697.4
323.14 K, 12000 kPa, x2 = 0.952 | 674.14
323.14 K, 13000 kPa, x2 = 0.5219 | 698.29
323.14 K, 13000 kPa, x2 = 0.952 | 675.1
323.14 K, 14000 kPa, x2 = 0.5219 | 699.17
323.14 K, 14000 kPa, x2 = 0.952 | 676.05
323.14 K, 15000 kPa, x2 = 0.5219 | 700.04
323.14 K, 15000 kPa, x2 = 0.952 | 676.99
323.14 K, 16000 kPa, x2 = 0.5219 | 700.9
323.14 K, 16000 kPa, x2 = 0.952 | 677.91
323.14 K, 17000 kPa, x2 = 0.5219 | 701.74
323.14 K, 17000 kPa, x2 = 0.952 | 678.82
323.14 K, 18000 kPa, x2 = 0.5219 | 702.6
323.14 K, 18000 kPa, x2 = 0.952 | 679.71
323.14 K, 19000 kPa, x2 = 0.5219 | 703.38
323.14 K, 19000 kPa, x2 = 0.952 | 680.59
323.14 K, 20000 kPa, x2 = 0.5219 | 704.18
323.14 K, 20000 kPa, x2 = 0.952 | 681.45
323.14 K, 21000 kPa, x2 = 0.5219 | 704.97
323.14 K, 21000 kPa, x2 = 0.952 | 682.3
323.14 K, 22000 kPa, x2 = 0.5219 | 705.7
323.14 K, 22000 kPa, x2 = 0.952 | 683.13
323.14 K, 23000 kPa, x2 = 0.5219 | 706.43
323.14 K, 23000 kPa, x2 = 0.952 | 683.92
323.14 K, 24000 kPa, x2 = 0.5219 | 707.14
323.14 K, 24000 kPa, x2 = 0.952 | 684.73
323.14 K, 25000 kPa, x2 = 0.5219 | 707.83
323.14 K, 25000 kPa, x2 = 0.952 | 685.51
323.15 K, 1000 kPa, x2 = 0.0531 | 705.96
323.15 K, 1000 kPa, x2 = 0.2594 | 698.56
323.15 K, 2000 kPa, x2 = 0.0531 | 706.92
323.15 K, 2000 kPa, x2 = 0.2594 | 699.45
323.15 K, 3000 kPa, x2 = 0.0531 | 707.86
323.15 K, 3000 kPa, x2 = 0.2594 | 700.3
323.15 K, 4000 kPa, x2 = 0.0531 | 708.79
323.15 K, 4000 kPa, x2 = 0.2594 | 701.18
323.15 K, 5000 kPa, x2 = 0.0531 | 709.69
323.15 K, 5000 kPa, x2 = 0.2594 | 702.06
323.15 K, 6000 kPa, x2 = 0.0531 | 710.58
323.15 K, 6000 kPa, x2 = 0.2594 | 702.96
